≈ marks a conversion by molar mass, not a printed value.

We go through three molecules from article PMC5923123, “In Vitro and In Vivo Efficacy of a Novel and Long-Acting Fungicidal Azole, PC1244, on Aspergillus fumigatus Infection” (Antimicrobial Agents and Chemotherapy, 2018).

Assay [1] has as its system A. fumigatus AF293. As to the kind of experiment: EUCAST broth microdilution growth inhibition (OD 530 nm, 384-well). Type of assay: cell-based. The conditions noted are these: Aspergillus fumigatus, strain AF293 (ITC-susceptible), 48 h. How it is done: (§1) The antifungal activities of the test compounds against A. fumigatus strains (itraconazole [ITC]-susceptible strains NCPF2010, AF294, and AF293; ITC-resistant strains AF72 and AF91) were calculated from growth curves generated by spectrophotometric analysis and compared to the activities against positive and negative controls.

For assay [2], the system named is A. fumigatus AF294. Described as above. It counts as cell-based. The conditions noted are these: Aspergillus fumigatus, strain AF294 (ITC-susceptible), 48 h. On the procedure: as §1
For assay [3], the system named is A. fumigatus AF72. The assay is described as above. It counts as cell-based. The conditions noted are these: Aspergillus fumigatus, strain AF72 (ITC-resistant), 48 h. How it is done:
as §1

Assay [4] deals with A. fumigatus AF91. The description is as above. It counts as cell-based. To be noted: Aspergillus fumigatus, strain AF91 (ITC-resistant), 48 h. How it is done:
as §1

Assay [5] concerns A. fumigatus NCPF2010. Described as above. It counts as cell-based. To be noted: Aspergillus fumigatus, strain NCPF2010 (ITC-susceptible), 48 h, range tested 0.002 to 1 μg/ml. How it is done:
as §1

The subject of assay [6] is A. fumigatus (ATCC 13073 [strain NIH 5233]). Put plainly: MIC against the strain used in vivo. Type of assay: cell-based. The conditions noted are these: Aspergillus fumigatus, ATCC13073; strain ATCC 13073; read-out: MIC.
For assay [7], the system named is A. fumigatus isolates. Details: method as in PMID 12202554. To be noted: MFC = lowest dilution yielding less than 3 colonies; cited from earlier work.

`CCC(C)n1ncn(-c2ccc(N3CCN(c4ccc(OCC5COC(Cn6cncn6)(c6ccc(Cl)cc6Cl)O5)cc4)CC3)cc2)c1=O` (centres unmarked) [Itraconazole, itraconazole]: the IC50 in assay [1] came to 0.032 µg/mL (≈ 0.0453 µM); in assay [2] it was 0.041 µg/mL (≈ 0.0581 µM); in assay [3], 0.31 µg/mL (≈ 0.439 µM); in assay [4] it was 0.22 µg/mL (≈ 0.312 µM); in assay [5], 0.037 µg/mL (≈ 0.0524 µM). Besides, the IC90 in assay [1] is 0.23 µg/mL (≈ 0.326 µM); in assay [2] it was 0.052 µg/mL (≈ 0.0737 µM); in assay [3] it was more than 1 µg/mL; in assay [4] it was more than 1 µg/mL; in assay [5], 0.054 µg/mL (≈ 0.0765 µM). Further, the MIC in assay [6] was determined as 0.5 µg/mL (≈ 0.709 µM). The “range of MFCs for inhibition of 90% of isolates tested (MFC90)” value in assay [7] is 0.2 to 4 µg/mL.

With `CC[C@H](C)C[C@H](C)CCCCCCCCC(=O)N[C@H]1C[C@@H](O)[C@@H](NCCN)NC(=O)[C@@H]2[C@@H](O)CCN2C(=O)[C@H]([C@H](O)CCN)NC(=O)[C@H]([C@H](O)[C@@H](O)c2ccc(O)cc2)NC(=O)[C@@H]2C[C@@H](O)CN2C(=O)[C@H]([C@@H](C)O)NC1=O` [Caspofungin, caspofungin], the IC50 in assay [1] is more than 1 µg/mL; in assay [2], more than 1 µg/mL; in assay [3], 0.065 µg/mL (≈ 0.0595 µM); in assay [4], 0.11 µg/mL (≈ 0.101 µM); in assay [5] it was 0.065 µg/mL (≈ 0.0595 µM). For the same molecule, the IC90 in assay [1], in assay [2], in assay [3], in assay [4] and in assay [5] was more than 1 µg/mL in each case.

In the case of `C[C@@H]1[C@H](O)[C@@H](C)/C=C/C=C/C=C/C=C/C=C/C=C/C=C/[C@H](O[C@@H]2O[C@H](C)[C@@H](O)[C@H](N)[C@@H]2O)C[C@@H]2O[C@](O)(C[C@@H](O)C[C@@H](O)[C@H](O)CC[C@@H](O)C[C@@H](O)CC(=O)O[C@H]1C)C[C@H](O)[C@H]2C(=O)O` [Amphotericin B, amphotericin B], the IC50 in assay [1] amounted to 0.24 µg/mL (≈ 0.26 µM); in assay [2] it was 0.21 µg/mL (≈ 0.227 µM); in assay [3] it was 0.12 µg/mL (≈ 0.13 µM); in assay [4], 0.28 µg/mL (≈ 0.303 µM); in assay [5], 0.2 µg/mL (≈ 0.216 µM). The IC90 in assay [1] is 0.85 µg/mL (≈ 0.92 µM); in assay [2] it was 0.79 µg/mL (≈ 0.855 µM); in assay [3], 0.42 µg/mL (≈ 0.455 µM); in assay [4], 0.75 µg/mL (≈ 0.812 µM); in assay [5] it was 0.62 µg/mL (≈ 0.671 µM).
